Literature values, collected in patent US12397060B2, “pHLIP®-mediated intracellular delivery of immuno-stimulatory compounds” (University of Rhode Island Board of Trustees, priority 2019, dated 2025).

System: DCs, macrophages, T cells and endothelial cells sorted from B16 tumors
Details: stimulated ex vivo, expression highest in macrophages, followed by DCs

| SMILES | IFN-β expression upon stimulation |
| --- | --- |
| Cc1ccc2c(=O)c3cccc(CC(=O)O)c3oc2c1C [DMXAA, 5,6-Dimethylxanthenone-4-acetic acid] | All subsets expressed IFN-β |
| Nc1ncnc2c1ncn2[C@@H]1O[C@@H]2COP(=O)([S-])O[C@@H]3[C@H](O)[C@@H](COP([O-])(=S)O[C@H]2[C@H]1O)O[C@H]3n1cnc2c(N)ncnc21.[Na+].[Na+] (some centres unmarked) [ML RR-S2 CDA, Dithio-(Rp, Rp)-2′,3′-CDA sodium salt] | All subsets expressed IFN-β |
